According to ChEMBL document CHEMBL1201862, “PubChem BioAssay data set” (2004):
Calls of active or inactive are those of the source.

What was measured:
BJ [1] = assay: cells; assay type: functional, cell-based; details: Homo sapiens
BJ [2] = assay: cytotoxicity toward BJ-TERT-LT-ST fibroblasts, dose response, cell-based, RAS-independent, luminescence (AID 1935); assay type: functional; details: Homo sapiens;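 further: BJ fibroblasts immortalized with TERT plus LT and ST oncogenes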
BJ [3] = assay: cytotoxicity toward BJ-TERT fibroblasts, dose response, cell-based, RAS-independent, luminescence (AID 1933); assay type: functional; details: Homo sapiens
[4] = cytotoxicity toward DRD oncogenic fibroblasts, dose response, cell-based, non-viral oncogenic, luminescence (AID 1934); assay type: functional; details: Homo sapiens
cells [5] = assay type: functional, cell-based
[6] = biological target: T1, Replicative DNA helicase DnaB (Mycobacterium tuberculosis, UniProt P9WMR3); assay: DnaB intein splicing inhibitors, dose response, biochemical, cell-free fluorescence (AID 449749); assay type: functional
T1 sequence (P9WMR3 whole entry): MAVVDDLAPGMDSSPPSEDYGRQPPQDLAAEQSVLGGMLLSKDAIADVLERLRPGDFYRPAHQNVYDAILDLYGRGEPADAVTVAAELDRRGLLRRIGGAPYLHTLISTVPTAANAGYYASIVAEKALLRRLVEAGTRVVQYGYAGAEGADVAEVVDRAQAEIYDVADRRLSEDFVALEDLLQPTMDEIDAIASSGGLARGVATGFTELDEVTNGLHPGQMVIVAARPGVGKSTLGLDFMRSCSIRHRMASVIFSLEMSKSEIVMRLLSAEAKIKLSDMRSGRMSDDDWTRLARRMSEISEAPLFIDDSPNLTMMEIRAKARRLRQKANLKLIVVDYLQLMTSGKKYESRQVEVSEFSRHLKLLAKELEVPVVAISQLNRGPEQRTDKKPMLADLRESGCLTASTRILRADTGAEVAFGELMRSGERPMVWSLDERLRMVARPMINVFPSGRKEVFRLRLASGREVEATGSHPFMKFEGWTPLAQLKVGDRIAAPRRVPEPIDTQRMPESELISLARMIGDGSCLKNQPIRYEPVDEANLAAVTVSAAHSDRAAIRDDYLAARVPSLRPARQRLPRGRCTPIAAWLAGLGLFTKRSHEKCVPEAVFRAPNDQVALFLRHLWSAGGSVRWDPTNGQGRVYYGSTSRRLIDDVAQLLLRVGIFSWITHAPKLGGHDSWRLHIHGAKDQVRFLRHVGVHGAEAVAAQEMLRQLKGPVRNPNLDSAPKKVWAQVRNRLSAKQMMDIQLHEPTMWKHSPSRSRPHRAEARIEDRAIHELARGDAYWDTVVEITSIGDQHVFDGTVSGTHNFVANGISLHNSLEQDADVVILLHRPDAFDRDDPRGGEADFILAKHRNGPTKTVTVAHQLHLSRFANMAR

cells [7] = assay type: functional, cell-based; remark: listed apart in the source
Protein RecA = biological target: T2, Protein RecA (Mycobacterium tuberculosis, UniProt P9WHJ3); assay: Fluorescence Cell-Free Homogeneous Dose Retest to Identify Inhibitors of RecA-Intein Splicing Activity. [Related pubchem assays (depositor defined):AID2097, AID2223, AID489010, AID492950]; assay type: functional
T2 sequence (P9WHJ3 whole entry): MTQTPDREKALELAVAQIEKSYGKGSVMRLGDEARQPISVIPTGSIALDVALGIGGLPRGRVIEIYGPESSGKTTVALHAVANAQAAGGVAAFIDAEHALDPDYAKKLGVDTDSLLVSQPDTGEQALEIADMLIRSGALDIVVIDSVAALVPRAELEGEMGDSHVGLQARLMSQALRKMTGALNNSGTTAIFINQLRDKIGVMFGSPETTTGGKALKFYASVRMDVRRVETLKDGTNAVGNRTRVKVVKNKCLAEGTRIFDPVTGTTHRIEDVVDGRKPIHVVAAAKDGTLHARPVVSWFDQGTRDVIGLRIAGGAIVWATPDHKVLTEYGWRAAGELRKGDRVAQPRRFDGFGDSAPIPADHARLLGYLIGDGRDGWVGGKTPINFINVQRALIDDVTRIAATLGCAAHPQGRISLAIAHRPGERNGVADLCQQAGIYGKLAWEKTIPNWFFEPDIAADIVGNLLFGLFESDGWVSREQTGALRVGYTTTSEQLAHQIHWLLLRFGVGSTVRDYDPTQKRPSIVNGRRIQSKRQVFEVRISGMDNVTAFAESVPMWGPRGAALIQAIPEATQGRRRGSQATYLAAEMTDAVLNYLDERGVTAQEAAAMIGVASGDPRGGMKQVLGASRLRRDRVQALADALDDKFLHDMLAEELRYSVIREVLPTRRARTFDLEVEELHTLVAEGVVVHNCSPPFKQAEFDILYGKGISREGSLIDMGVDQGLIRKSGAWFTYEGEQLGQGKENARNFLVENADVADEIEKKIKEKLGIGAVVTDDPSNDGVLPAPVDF

Coagulation factor XII = biological target: T3, Coagulation factor XII (Homo sapiens, UniProt P00748); assay type: functional;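 further: activated factor XIIa alpha cleaving a fluorogenic AMC peptide substrate; inhibitor potency from loss of enzyme activity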
T3 sequence (P00748 whole entry): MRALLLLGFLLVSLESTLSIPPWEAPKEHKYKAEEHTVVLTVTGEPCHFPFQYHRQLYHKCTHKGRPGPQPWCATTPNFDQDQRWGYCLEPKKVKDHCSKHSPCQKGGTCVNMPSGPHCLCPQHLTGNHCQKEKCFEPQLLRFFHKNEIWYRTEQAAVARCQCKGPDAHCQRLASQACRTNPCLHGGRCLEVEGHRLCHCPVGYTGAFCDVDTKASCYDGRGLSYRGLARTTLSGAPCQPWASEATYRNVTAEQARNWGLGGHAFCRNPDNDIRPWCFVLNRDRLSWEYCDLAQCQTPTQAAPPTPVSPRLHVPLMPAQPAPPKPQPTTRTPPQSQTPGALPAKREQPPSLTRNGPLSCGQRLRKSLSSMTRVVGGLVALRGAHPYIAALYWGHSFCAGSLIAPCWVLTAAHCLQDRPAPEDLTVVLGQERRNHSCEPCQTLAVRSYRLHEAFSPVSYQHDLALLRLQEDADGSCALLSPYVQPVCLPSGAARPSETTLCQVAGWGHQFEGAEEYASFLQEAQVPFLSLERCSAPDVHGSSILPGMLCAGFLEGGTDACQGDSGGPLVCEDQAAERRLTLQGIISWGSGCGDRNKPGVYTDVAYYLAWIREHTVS

[8] = cytotoxicity in HEK-293T cells, dose response, cytotoxicity control for TCR NF-kB inhibitor project, luminescence, T-cell screen hits (AID 489026); assay type: functional, cell-based;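 further: cells exposed to compound about 14 hours before the viability readout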
[9] = Luminescence Cell-Based Dose Response HTS to Identify Inhibitors of 5'UTR Stem-Loop Driven Prion Protein mRNA Translation in H4 Neuroglioblastoma Cells. [Related pubchem assays: 1827 (Project Summary), 1813 (Primary HTS)]; assay type: functional
[10] = inhibitors of firefly luciferase expression or activity, dose response, H4 neuroglioma cells, luminescence (AID 1990); assay type: functional, cell-based
[11] = inhibitors of SNCA 5'UTR-driven reporter translation, confirmation, H4 neuroglioma cells, luminescence (AID 1988); assay type: functional, cell-based
[12] = inhibitors of intracellular T. cruzi replication, confirmation, NIH3T3 host cells, beta-gal luminescence (AID 2044); assay type: functional, cell-based;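 further: intracellular parasites grown in NIH/3T3 mouse fibroblasts as host cells; luminescent beta-galactosidase reporter signal from transgenic T. cruzi replicating inside host cells; inhibitors lower the luminescence signal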
[13] = Shn3 3'UTR reporter inhibitors, dose response, cell-based, Clone20 osteoblasts, firefly luciferase, cherry-picked (AID 624132); assay type: functional;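 further: firefly luciferase luminescence from reporter carrying the Shn3 3'UTR in osteoblasts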
[14] = HepG2 cell cytotoxicity, dose response, cytotoxicity control for Shn3 inhibitor project, CellTiter-Glo, cherry-picked (AID 624134); assay type: functional, cell-based
[15] = control 3'UTR Renilla luciferase suppression, dose response, counter-screen for Shn3 inhibitor project, cell-based, Clone20-Shn3RL, cherry-picked (AID 624133); assay type: functional
INS1 = assay: beta cell apoptosis inhibitors, cytokine rescue, dose response, luminescence, retest (AID 449756); assay type: functional, cell-based; details: Rattus norvegicus;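 further: cell death triggered by IL-1 beta plus TNF-alpha plus IFN-gamma mixture; protective hits raise ATP signal compared with cytokine alone wells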
[16] = Luminescence Cell-Based Dose Retest to Confirm Inhibitors of Cancer Stem Cells. [Related pubchem assays (depositor defined):AID2717, AID2721]; assay type: functional; details: Homo sapiens
[17] = Luminescence Cell-Based Dose Confirmation HTS to Identify Inhibitors of Platelet Dense Granule Release. [Related pubchem assays: 1663 (Primary HTS), 1678 (Summary of Project)]; assay type: functional
Cytochrome P450 2C19 = Cytochrome P450 2C19 (Homo sapiens, UniProt P33261); assay: Cytochrome panel assay with activity outcomes. Panel member name: p450-cyp2c19 Compounds with AC50 equal or less than 10 uM are considered active; assay type: functional; details: read-out: AC50
Cytochrome P450 2C19, sequence (P33261 whole entry): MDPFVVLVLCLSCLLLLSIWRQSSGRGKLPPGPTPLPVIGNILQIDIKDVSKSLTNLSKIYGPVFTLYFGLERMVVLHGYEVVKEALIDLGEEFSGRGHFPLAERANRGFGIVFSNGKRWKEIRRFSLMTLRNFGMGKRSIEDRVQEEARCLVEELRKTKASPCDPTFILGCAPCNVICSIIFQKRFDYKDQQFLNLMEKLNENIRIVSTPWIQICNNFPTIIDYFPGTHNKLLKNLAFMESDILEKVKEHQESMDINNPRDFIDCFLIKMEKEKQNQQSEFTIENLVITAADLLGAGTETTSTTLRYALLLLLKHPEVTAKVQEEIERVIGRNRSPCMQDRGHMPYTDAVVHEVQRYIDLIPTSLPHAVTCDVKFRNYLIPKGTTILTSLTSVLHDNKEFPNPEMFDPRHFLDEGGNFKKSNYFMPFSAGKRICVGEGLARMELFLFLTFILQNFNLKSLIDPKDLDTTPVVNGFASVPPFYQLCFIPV

[18] = biological target: Luciferin 4-monooxygenase (Photinus pyralis, UniProt P08659); assay: firefly luciferase enzyme inhibitors, dose response, biochemical, luminescence (AID 1891)
Luciferin 4-monooxygenase, sequence (P08659 whole entry): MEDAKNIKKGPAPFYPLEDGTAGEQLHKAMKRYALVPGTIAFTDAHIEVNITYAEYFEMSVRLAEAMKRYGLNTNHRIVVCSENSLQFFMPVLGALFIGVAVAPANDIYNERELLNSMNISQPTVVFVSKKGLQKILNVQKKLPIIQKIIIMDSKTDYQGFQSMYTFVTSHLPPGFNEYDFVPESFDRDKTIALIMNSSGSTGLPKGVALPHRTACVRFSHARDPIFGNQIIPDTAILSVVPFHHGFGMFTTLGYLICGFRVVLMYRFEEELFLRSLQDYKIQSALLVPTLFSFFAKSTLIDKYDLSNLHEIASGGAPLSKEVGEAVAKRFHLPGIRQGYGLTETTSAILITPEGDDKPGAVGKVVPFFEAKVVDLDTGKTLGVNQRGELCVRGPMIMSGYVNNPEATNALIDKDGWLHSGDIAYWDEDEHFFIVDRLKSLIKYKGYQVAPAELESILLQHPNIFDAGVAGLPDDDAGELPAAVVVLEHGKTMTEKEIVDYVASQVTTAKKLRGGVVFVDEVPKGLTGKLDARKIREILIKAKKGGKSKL

Cytochrome P450 1A2 = biological target: T4, Cytochrome P450 1A2 (Homo sapiens, UniProt P05177);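 further: PubChem cytochrome P450 panel assay, CYP1A2 panel member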
T4 sequence (P05177 whole entry): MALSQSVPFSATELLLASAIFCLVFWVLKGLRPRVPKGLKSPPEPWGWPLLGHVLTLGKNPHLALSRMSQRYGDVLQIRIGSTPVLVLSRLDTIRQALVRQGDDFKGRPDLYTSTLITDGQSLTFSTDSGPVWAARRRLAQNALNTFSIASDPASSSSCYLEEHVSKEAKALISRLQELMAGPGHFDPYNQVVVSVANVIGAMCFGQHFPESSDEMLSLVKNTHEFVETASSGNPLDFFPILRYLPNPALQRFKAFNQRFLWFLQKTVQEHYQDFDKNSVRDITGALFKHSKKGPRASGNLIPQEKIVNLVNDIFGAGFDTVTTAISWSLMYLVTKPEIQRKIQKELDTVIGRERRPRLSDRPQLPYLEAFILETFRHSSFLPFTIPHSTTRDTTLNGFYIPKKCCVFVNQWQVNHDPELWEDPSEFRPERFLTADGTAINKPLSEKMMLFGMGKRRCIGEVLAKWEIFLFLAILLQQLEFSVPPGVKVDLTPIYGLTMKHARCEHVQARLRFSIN

Cytochrome P450 2C9 = Cytochrome P450 2C9 (Homo sapiens, UniProt P11712)
Cytochrome P450 2C9, sequence (P11712 whole entry): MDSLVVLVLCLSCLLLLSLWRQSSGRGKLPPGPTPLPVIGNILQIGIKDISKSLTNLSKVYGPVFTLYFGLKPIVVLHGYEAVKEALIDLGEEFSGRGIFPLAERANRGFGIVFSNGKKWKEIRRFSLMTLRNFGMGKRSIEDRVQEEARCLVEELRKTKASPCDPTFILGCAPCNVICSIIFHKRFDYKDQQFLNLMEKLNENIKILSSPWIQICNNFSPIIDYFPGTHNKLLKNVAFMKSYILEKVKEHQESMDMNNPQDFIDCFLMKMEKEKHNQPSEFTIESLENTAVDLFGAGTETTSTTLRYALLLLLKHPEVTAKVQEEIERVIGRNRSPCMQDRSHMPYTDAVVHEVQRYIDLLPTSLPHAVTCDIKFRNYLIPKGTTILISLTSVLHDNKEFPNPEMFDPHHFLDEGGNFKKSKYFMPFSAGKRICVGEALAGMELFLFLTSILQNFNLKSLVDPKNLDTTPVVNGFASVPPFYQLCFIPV

## COC(=O)c1ccc(C)c(NC(=O)CN(c2cc(OC)ccc2OC)S(C)(=O)=O)c1
BJ [1]
  EC50: > 150 µM (not active)
BJ [2]
  EC50: > 150 µM (not active)
BJ [3]
  EC50: > 150 µM (not active)
[4]
  EC50: > 150 µM (inconclusive)

## COC(CN(C(=O)CCl)C(C(=O)NC1CCCCC1)c1ccc(Cl)cc1)OC (configuration not stated)
Cells [5]
  EC50: > 350 µM (not active)
[6]
  AC50: 15.8 µM (active)
Cells [7]
  EC50: > 350 µM (not active)
Protein RecA
  EC50: 1.81 µM (active)

## O=C(C[n+]1cc(-c2ccccc2)n2c1CCC2)Nc1nc(-c2ccccc2)cs1
Coagulation factor XII
  IC50: > 50 µM (inactive)

## CCN(Cc1ccccc1)C(=O)CCNS(=O)(=O)c1ccc2c(c1)CC(C)N2C(C)=O (configuration not stated)
Cells [5]
  EC50: > 350 µM (not active)
Cells [7]
  EC50: > 350 µM (not active)

## COc1cc(Cl)c(C)cc1NC(=O)CSC
Coagulation factor XII
  IC50: > 50 µM (inactive)

## COc1cccc2sc(NC(=O)c3ccc(S(=O)(=O)N4CCOCC4)cc3)nc12
Coagulation factor XII
  IC50: > 50 µM (inactive)

## Cc1nc(-c2ccc(C(=O)Nc3ccccc3F)cc2)cs1
BJ [1]
  EC50: 10.8 µM (active)
BJ [2]
  EC50: 19.9 µM (active)
BJ [3]
  EC50: 13.7 µM (active)
[4]
  EC50: 11 µM (active)

## Cc1c(C(=O)OCC(C)C)[nH]c2c1C(=O)CC(c1cccs1)C2 (configuration not stated)
[8]
  IC50: > 80 µM (inactive)
[9]
  EC50: > 60 µM (not active)
[10]
  EC50: 8.93 µM (inconclusive)
[11]
  EC50: 3.13 µM (active)
[12]
  EC50: 4.91 µM (active)

## CC(C)(C)c1cc(C(=O)N/N=C/c2ccccc2O)n(-c2ccccc2)n1
[13]
  AC50: 2.25 µM (active)
[14]
  AC50: 5.66 µM (active)
[15]
  AC50: 2.18 µM (active)
INS1
  AC50: 3.37 µM (active)
[16]
  AC50: 3.05 µM (active)

## Cc1c(C(c2cccc([N+](=O)[O-])c2O)c2c(C)n(C)n(-c3ccccc3)c2=O)c(=O)n(-c2ccccc2)n1C
[17]
  EC50: > 112 µM (not active)
Cytochrome P450 2C19
  AC50: 35.5 µM (inconclusive)
[18]
  EC50: > 112 µM (not active)
Cytochrome P450 1A2
  AC50: 15.8 µM (inconclusive)
Cytochrome P450 2C9
  AC50: 0.00562 µM (inconclusive)
